Laboratory results as given in US8933102B2, “Pyrrolidine derived β3 adrenergic receptor agonists” (Merck Sharp & Dohme Corp., priority 2010, dated 2015).
pEC50: −log10 of the molar value.

Biological target: T1, human β3 adrenergic receptor (Homo sapiens, UniProt P13945)
T1 construct: expressed in transfected cells; host or cells: Chinese hamster ovary (CHO) cells, stably transfected
Test: Beta-3 agonist in vitro functional assay (cAMP production, LANCE, CHO cells stably transfected with cloned β3 receptor)
Assay type: cell-based
Conditions: cAMP production in CHO cells expressing human β3 AR; ranges as class symbols; read-out: Human β3 agonist functional activity
Method: Functional Assay: cAMP production in response to ligand is measured according to Barton, et al. (1991, Agonist-induced desensitization of D2 dopamine receptors in human Y-79 retinoblastoma cells. Mol. Pharmacol. […]) modified as follows. cAMP production is measured using a homogenous time-resolved fluorescence resonance energy transfer immunoassay (LANCE™, Perkin Elmer) according to the manufacture's instructions. Chinese hamster ovary (CHO) cells, stably transfected with the cloned β-adrenergic receptor (β1, β2 or β3) are harvested after 3 days of subculturing. Harvesting of cells is done with Enzyme-free Dissociation Media (Specialty Media). Cells are then counted and resuspended in assay buffer (Hank's Balanced salt solution supplemented with 5 mM HEPES, […]) containing a phosphodiesterase inhibitor (IBMX, 0.6 mM). The reaction is initiated by mixing 6,000 cells in 6 μL with 6 μL Alexa Fluor labeled cAMP antibody (LANCE™ kit) which is then added to an assay well containing 12 μL of compound (diluted in assay buffer to 2× final concentration). The reaction proceeds for 30 minutes at RT and is terminated by the addition of 24 ul detection buffer (LANCE™ kit). The assay plate is then incubated for 1 h at RT and time-resolved fluorescence measured on a Perkin Elmer Envision reader or equivalent. The unknown cAMP level is determined by comparing fluorescence levels to a cAMP standard curve.
The non-selective, full agonist 13-adrenergic ligand isoproterenol is used at all three receptors to determine maximal stimulation. The human β3 adrenergic receptor (AR) selective ligand (S)—N-[4-[2-[[2-hydroxy-3-(4-hydroxyphenoxy)propyl]amino]ethyl]-phenyl]-4-iodobenzenesulfonamide is used as a control in all assays. Isoproterenol is titrated at a final concentration in the assay of 10^-10 M to 10-5 and the selective ligand (S)—N-[4-[2-[[2-hydroxy-3-(4-hydroxyphenoxy)propyl]amino]ethyl]phenyl]-4-iodobenzenesulfonamide is titrated at the β3 receptor at concentration of 10^-10 M to 10^-5 M. Unknown ligands are titrated at all 3 β-adrenergic receptor subtypes at a final concentration in the assay of 10^-10 M to 10^-5 M to determine the EC50. The EC50 is defined as the concentration of compound that gives 50% activation of its own maximum. Data are analyzed using Microsoft Excel and Graphpad Prism or an internally developed data analysis software package.

T1 sequence (P13945 whole entry): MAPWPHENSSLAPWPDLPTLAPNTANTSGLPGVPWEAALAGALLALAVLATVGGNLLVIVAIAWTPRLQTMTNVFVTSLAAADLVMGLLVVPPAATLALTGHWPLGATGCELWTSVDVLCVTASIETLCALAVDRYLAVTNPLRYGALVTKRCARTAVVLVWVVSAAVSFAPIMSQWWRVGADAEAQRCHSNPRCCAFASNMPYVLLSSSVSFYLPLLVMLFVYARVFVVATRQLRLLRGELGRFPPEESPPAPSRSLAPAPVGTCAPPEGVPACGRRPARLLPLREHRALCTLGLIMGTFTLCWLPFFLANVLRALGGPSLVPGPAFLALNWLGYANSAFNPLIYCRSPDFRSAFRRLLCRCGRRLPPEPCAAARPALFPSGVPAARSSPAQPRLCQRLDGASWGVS

First: O=C(c1ccc(C[C@@H]2CC[C@H]([C@H](O)COc3ccccc3)N2)cc1)N1CCC(n2nccn2)CC1 [Example 2]
Second: O=C(c1ccc(C[C@@H]2CC[C@H]([C@H](O)COc3ccccc3)N2)cc1)N1CCC(n2ccnn2)CC1 [Example 3]
The pEC50 of the first is higher: 8.00 to 9.00 for the first, 7.00 to 7.96 for the second. The first is the more potent here.

`Cn1nnnc1C1CCN(C(=O)c2ccc(C[C@@H]3CC[C@H]([C@H](O)COc4ccccc4)N3)cc2)CC1` [Example 4] and `O=C(c1ccc(C[C@@H]2CC[C@H]([C@H](O)COc3ccccc3)N2)cc1)N1C[C@@H]2[C@H](C1)[C@H]2n1cnnn1` [Example 5] cannot be ordered by pEC50: > 9.00 for the first, > 9.00 for the second.

With `O=C(c1ccc(C[C@@H]2CC[C@H]([C@H](O)COc3ccccc3)N2)cc1)N1CCN(Cc2ccncn2)CC1` [Example 6] the pEC50 was 8.00 to 9.00.

Same assay, conditions: cAMP production in CHO cells expressing human β3 AR; read-out: human Beta-3 agonist functional activity

Work on `O=C(c1ccc(C[C@@H]2CC[C@H]([C@H](O)COc3ccccc3)N2)cc1)N1CCC(n2cccn2)CC1` [Example 1] yielded a pEC50 of 8.00 to 9.00.
